Tests used:
Type in all cases: in vivo
Avena fatua = test: Test Example 4: herbicidal effect by application to foliage (diluvial soil, plastic box); settings: application to foliage, 320 g/ha
In short: (§1)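 Emulsion-formulated compound, diluted to a predetermined g/ha dose, applied by small sprayer to leaves and stems of 14-day-old seedlings grown in sterilized diluvial soil. Effect rated on 0–5 herbicidal-ratio scale three weeks on.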

Veronica persica = test: as above; settings: application to foliage, 320 g/ha
In short: as §1

Setaria viridis = test: as above; settings: application to foliage, 320 g/ha
In short: as §1

Galium spurium = test: as above; settings: application to foliage, 320 g/ha
In short: as §1

[1] = test system: Echinochloa crus-galli var. crus-galli; test: as above; settings: application to foliage, 320 g/ha
In short: as §1

Amaranthus retroflexus = test: as above; settings: application to foliage, 320 g/ha
In short: as §1

Lolium multiflorum Lam. = test: as above; settings: application to foliage, 320 g/ha
In short: as §1

Apera spica-venti. = test: as above; settings: application to foliage, 320 g/ha
In short: as §1

Stellaria media = test: as above; settings: application to foliage, 320 g/ha
In short: as §1

Alopecurus myosuroides = test: as above; settings: application to foliage, 320 g/ha
In short: as §1

Chenopodium album = test: as above; settings: application to foliage, 320 g/ha
In short: as §1

Digitaria ciliaris = test: as above; settings: application to foliage, 320 g/ha
In short: as §1

Abutilon theophrasti = test: as above; settings: application to foliage, 320 g/ha
In short: as §1

Leptochloa chinensis = test: Test Example 3: herbicidal effect by application to foliage (Wagner pot, water depth 0.1-0.5 cm); settings: Nineteenth Table; application to foliage; application herbicide amount 320 g/ha
In short: (§2)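 Visual 0–5 rating of herbicidal ratio, taken 3 weeks after foliar spray of a diluted emulsion formulation at rates expressed as g/ha. Plants had been sown in alluvial soil under 0.1–0.5 cm water and grown 14 days at 25–30 °C under glass before application.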

Cyperus difformis = test: as above; settings: Nineteenth Table; application to foliage; application herbicide amount 320 g/ha
In short: as §2

[2] = test system: Echinochloa crus-galli var. crus-galli; test: as above; settings: Nineteenth Table; application to foliage; application herbicide amount 320 g/ha
In short: as §2

Triticum aestivum = test: Test Example 4: effect on crop by application to foliage (diluvial soil, plastic box); settings: application to foliage, 320 g/ha
In short: as §1

Brassica campestris L. = test: as above; settings: application to foliage, 320 g/ha
In short: as §1

Glycine max = test: as above; settings: application to foliage, 320 g/ha
In short: as §1

[3] = test system: Beta vulgaris ssp. vulgaris; test: as above; settings: application to foliage, 320 g/ha
In short: as §1

[4] = test system: directly sowed Oryza sativa; test: as above; settings: application to foliage, 320 g/ha
In short: as §1

SMILES | herbicidal effect, I (Avena fatua) (Avena fatua) | herbicidal effect, R (Veronica persica) (Veronica persica) | herbicidal effect, G (Setaria viridis) (Setaria viridis) | herbicidal effect, Q (Galium spurium) (Galium spurium) | herbicidal effect, H (Echinochloa crus-galli var. crus-galli) [1] | herbicidal effect, N (Amaranthus retroflexus) (Amaranthus retroflexus) | herbicidal effect, K (Lolium multiflorum Lam.) (Lolium multiflorum Lam.) | herbicidal effect, L (Apera spica-venti.) (Apera spica-venti.) | herbicidal effect, P (Stellaria media) (Stellaria media) | herbicidal effect, J (Alopecurus myosuroides) (Alopecurus myosuroides) | herbicidal effect, O (Chenopodium album) (Chenopodium album) | herbicidal effect, F (Digitaria ciliaris) (Digitaria ciliaris) | herbicidal effect, M (Abutilon theophrasti) (Abutilon theophrasti) | D (herbicidal effect grade) (Leptochloa chinensis) | E (herbicidal effect grade) (Cyperus difformis) | H (herbicidal effect grade) [2] | effect on crop, e (Triticum aestivum) (Triticum aestivum) | effect on crop, g (Brassica campestris L.) (Brassica campestris L.) | effect on crop, c (Glycine max) (Glycine max) | effect on crop, f (Beta vulgaris ssp. vulgaris) [3] | further results
Cn1nnnc1NC(=O)c1ccc(C(F)(F)F)n2c(SCC3CC3)nnc12 [2-084] | 4 (Herbicidal ratio of 70% or more and less than 90%) | 3 (Herbicidal ratio of 40% or more and less than 70%) | 5 (Herbicidal ratio of 90% or more (almost completely withered)) | 4 (Herbicidal ratio of 70% or more and less than 90%) | 5 (Herbicidal ratio of 90% or more (almost completely withered)) | 5 (Herbicidal ratio of 90% or more (almost completely withered)) | 3 (Herbicidal ratio of 40% or more and less than 70%) | 4 (Herbicidal ratio of 70% or more and less than 90%) | 5 (Herbicidal ratio of 90% or more (almost completely withered)) | 3 (Herbicidal ratio of 40% or more and less than 70%) | 5 (Herbicidal ratio of 90% or more (almost completely withered)) | 5 (Herbicidal ratio of 90% or more (almost completely withered)) | 5 (Herbicidal ratio of 90% or more (almost completely withered)) | 5 (Herbicidal ratio of 90% or more (almost completely withered)) | 5 (Herbicidal ratio of 90% or more (almost completely withered)) | 5 (Herbicidal ratio of 90% or more (almost completely withered)) | 3 (Herbicidal ratio of 40% or more and less than 70%) | 3 (Herbicidal ratio of 40% or more and less than 70%) | 1 (Herbicidal ratio of 5% or more and less than 20%) | 5 (Herbicidal ratio of 90% or more (almost completely withered)) | effect on crop, d (directly sowed Oryza sativa) [4]: 3 (Herbicidal ratio of 40% or more and less than 70%)
CC(C)N(C)c1nnc2c(C(=O)Nc3nnnn3C)ccc(C(F)(F)F)n12 [2-082] | 2 (Herbicidal ratio of 20% or more and less than 40%) | 4 (Herbicidal ratio of 70% or more and less than 90%) | 5 (Herbicidal ratio of 90% or more (almost completely withered)) | 4 (Herbicidal ratio of 70% or more and less than 90%) | 5 (Herbicidal ratio of 90% or more (almost completely withered)) | 5 (Herbicidal ratio of 90% or more (almost completely withered)) | 4 (Herbicidal ratio of 70% or more and less than 90%) | 4 (Herbicidal ratio of 70% or more and less than 90%) | 5 (Herbicidal ratio of 90% or more (almost completely withered)) | 4 (Herbicidal ratio of 70% or more and less than 90%) | 5 (Herbicidal ratio of 90% or more (almost completely withered)) | 5 (Herbicidal ratio of 90% or more (almost completely withered)) | 5 (Herbicidal ratio of 90% or more (almost completely withered)) | 5 (Herbicidal ratio of 90% or more (almost completely withered)) | 5 (Herbicidal ratio of 90% or more (almost completely withered)) | 5 (Herbicidal ratio of 90% or more (almost completely withered)) | 4 (Herbicidal ratio of 70% or more and less than 90%) | 5 (Herbicidal ratio of 90% or more (almost completely withered)) | 1 (Herbicidal ratio of 5% or more and less than 20%) | 5 (Herbicidal ratio of 90% or more (almost completely withered)) | effect on crop, d (directly sowed Oryza sativa) [4]: 5 (Herbicidal ratio of 90% or more (almost completely withered))
Cn1nnnc1NC(=O)c1ccc(C(F)(F)F)n2c(SCC#N)nnc12 [2-086] | 3 (Herbicidal ratio of 40% or more and less than 70%) | 5 (Herbicidal ratio of 90% or more (almost completely withered)) | 5 (Herbicidal ratio of 90% or more (almost completely withered)) | 4 (Herbicidal ratio of 70% or more and less than 90%) | 5 (Herbicidal ratio of 90% or more (almost completely withered)) | 5 (Herbicidal ratio of 90% or more (almost completely withered)) | 2 (Herbicidal ratio of 20% or more and less than 40%) | 4 (Herbicidal ratio of 70% or more and less than 90%) | 4 (Herbicidal ratio of 70% or more and less than 90%) | 1 (Herbicidal ratio of 5% or more and less than 20%) | 5 (Herbicidal ratio of 90% or more (almost completely withered)) | 5 (Herbicidal ratio of 90% or more (almost completely withered)) | 5 (Herbicidal ratio of 90% or more (almost completely withered)) | 5 (Herbicidal ratio of 90% or more (almost completely withered)) | 4 (Herbicidal ratio of 70% or more and less than 90%) | 5 (Herbicidal ratio of 90% or more (almost completely withered)) | 2 (Herbicidal ratio of 20% or more and less than 40%) | 3 (Herbicidal ratio of 40% or more and less than 70%) | 0 (Herbicidal ratio of 5% or less (almost no effect)) | 5 (Herbicidal ratio of 90% or more (almost completely withered)) | effect on crop, d (directly sowed Oryza sativa) [4]: 4 (Herbicidal ratio of 70% or more and less than 90%)

From patent US9708314B2, “Heterocyclic amide compound” (NISSAN CHEMICAL INDUSTRIES, LTD., priority 2013, dated 2017)
